Key:
[1] = target: KRAS G12V binding to BRAF (Homo sapiens (Human), UniProt P01116+P62937, G12V); experiment: KRAS-BRAF with CYPA (500 nM) interaction assay (TR-FRET), G12V; type: biochemical
Method in brief: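 A TR-FRET assay measured how compound, in the presence of CYPA, disrupts binding of GMPPNP-loaded 6His-KRAS G12V to BRAF. The buffer contained 25 mM HEPES PH=7.4, 0.002% Tween20, 0.1% BSA, 100 mM NaCl, 5 mM MgCl2 and 10 μM GMPPNP. Compounds ran as a 16-point 3-fold dilution series from 10 μM for 3 hours.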

[2] = test system: phosphorylation of ERK, KRAS G12V in SW620; experiment: pERK inhibition assay, KRAS G12V; type: cell-based, human; settings: Homo sapiens, SW-620, SW620, 4 hours
Method in brief: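 Cells in RPMI-1640 with 10% FBS were plated overnight (NCJ-H358 30,000, AGS 20,000, SW620 30,000 cells/well), then exposed to compounds in 0.5% DMSO for 4 h. Fixed, methanol-permeabilized cells were probed for pERK by HRP-based in-cell ELISA with TMB, OD450; IC50 from 4-parameter sigmoidal fit.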

[3] = test system: AGS (ATCC-CRL-1739) cells; experiment: Cell viability assay, G12D (AGS); type: cell-based, human; settings: Homo sapiens, KRAS cell viability, 72 hrs, Cell Counting Kit-8
Method in brief: (§1)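 Read-out is CCK-8 absorbance (OD450 minus OD650, 2 hrs after reagent), reflecting NADPH after 72 hrs of compound exposure in 0.5% DMSO. Seeding density was 5,000 cells/well for NCI-H358 and 2,000 for AGS and SW620. IC50 derived by 4-parameter sigmoidal fitting.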

[4] = test system: SW620 (ATCC-CCL-227); experiment: Cell viability assay, G12V (SW620); type: cell-based, human; settings: Homo sapiens, SW-620; KRAS cell viability, SW620, 72 hrs, Cell Counting Kit-8
Method in brief: as §1

[5] = target: KRAS G12C-BRAF complex (Homo sapiens (Human), UniProt P01116+P62937, G12C); experiment: KRAS G12C-BRAF NanoBit assay; type: cell-based; settings: HEK293 cells, 3 hours of incubation
Method in brief: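 Stable HEK293 pool co-expressing SmBit-KRAS G12C and BRAF RBD-LgBit; 10,000 cells/well incubated 3 h with compound, 16-point 3-fold dilution from 30 μM final. Live-cell Nano-Glo substrate added, luminescence read at 20 min; disruption seen as luminescence decrease vs DMSO.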

[6] = test system: NCI-H358 (ATCC-CRL5807) cells; experiment: Cell viability assay, G12C (NCI-H358); type: cell-based, human; settings: Homo sapiens; KRAS cell viability, NCI-H358, 72 hrs, Cell Counting Kit-8
Method in brief: as §1

Chain of KRAS G12V binding to BRAF (P01116-2 other isoform, or with tags, fused parts or gaps G12V): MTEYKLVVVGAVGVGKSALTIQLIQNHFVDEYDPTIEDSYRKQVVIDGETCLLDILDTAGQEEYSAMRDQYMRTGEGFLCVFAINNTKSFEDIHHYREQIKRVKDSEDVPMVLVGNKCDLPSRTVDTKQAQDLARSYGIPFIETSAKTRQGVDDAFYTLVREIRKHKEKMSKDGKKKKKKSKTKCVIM
Chain of KRAS G12V binding to BRAF (P62937 whole entry): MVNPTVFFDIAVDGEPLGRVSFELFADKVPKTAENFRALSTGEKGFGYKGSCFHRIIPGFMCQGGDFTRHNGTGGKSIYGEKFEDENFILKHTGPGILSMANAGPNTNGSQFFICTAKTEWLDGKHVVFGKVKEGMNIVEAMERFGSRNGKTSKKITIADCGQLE
Chain of KRAS G12C-BRAF complex (P01116-2 other isoform, or with tags, fused parts or gaps G12C): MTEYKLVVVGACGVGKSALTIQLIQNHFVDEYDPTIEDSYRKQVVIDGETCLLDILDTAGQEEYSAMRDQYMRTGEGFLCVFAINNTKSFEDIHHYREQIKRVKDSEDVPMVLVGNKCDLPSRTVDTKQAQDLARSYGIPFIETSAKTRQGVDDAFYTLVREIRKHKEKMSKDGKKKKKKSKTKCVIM
Chain of KRAS G12C-BRAF complex (P62937 whole entry): as the sequence (P62937 whole entry) above

SMILES | IC50 [1] [nM] | IC50 [2] [nM] | IC50 [3] [nM] | IC50 [4] [nM] | IC50 [5] [nM] | IC50 [6] [nM]
CO[C@@H](C)c1ncc(N2CCN(C)CC2)cc1-c1c2c3cc(c(F)cc3n1CC(F)(F)F)-c1csc(n1)C[C@H](NC(=O)[C@H](C(C)C)N1CCCC3(CN(C(=O)[C@H](F)Cl)C3)C1=O)C(=O)N1CCC[C@H](N1)C(=O)OCC(C)(C)C2 (atropisomer, axis not shown; (M)) [Example 11, (2S)-2-[2-[(2R)-2-chloro-2-fluoro-acetyl]-5-oxo-2,6-diazaspiro[3.5]nonan-6-yl]-N-[(7S,13S)-24-fluoro-(20M)-20-[2-[(1S)-1-methoxyethyl]-5-(4-methylpiperazin-1-yl)-3-pyridyl]-17,17-dimethyl-8,14-dioxo-21-(2,2,2-trifluoroethyl)-15-oxa-4-thia-9,21,27,28-tetrazapentacyclo[17.5.2.1^2,5.1^9,13.0^22,26]octacosa-1(25),2,5(28),19,22(26),23-hexaen-7-yl]-3-methyl-butanamide] | 1030 | 22 | 1880 | 29 | 5 | < 1
CCn1c(-c2cc(N3CCOCC3)cnc2[C@H](C)OC)c2c3cc(c(F)cc31)-c1csc(n1)C[C@H](NC(=O)[C@H](C(C)C)N(C)C(=O)[C@H]1CCN(C(=O)[C@H](F)Cl)C1)C(=O)N1CCC[C@H](N1)C(=O)OCC(C)(C)C2 (atropisomer, axis not shown; (M)) [Example 55, (3S)-1-[(2R)-2-chloro-2-fluoro-acetyl]-N-[(1S)-1-[[(7S,13S)-21-ethyl-24-fluoro-(20M)-20-[2-[(1S)-1-methoxyethyl]-5-morpholino-3-pyridyl]-17,17-dimethyl-8,14-dioxo-15-oxa-4-thia-9,21,27,28-tetrazapentacyclo[17.5.2.1^2,5.1^9,13.0^22,26]octacosa-1(25),2,5(28),19,22(26),23-hexaen-7-yl]carbamoyl]-2-methyl-propyl]-N-methyl-pyrrolidine-3-carboxamide] | 2110 | 75 | 848 | 155 | 10 | < 3
CCn1c(-c2cc(N3CCOCC3)cnc2[C@H](C)OC)c2c3cc(c(F)cc31)-c1csc(n1)C[C@H](NC(=O)[C@H](C(C)C)N(C)C(=O)C1(F)CCN(C(=O)[C@H](F)Cl)CC1)C(=O)N1CCC[C@H](N1)C(=O)OCC(C)(C)C2 (atropisomer, axis not shown; (M)) [Example 54, 1-[(2R)-2-chloro-2-fluoro-acetyl]-N-[(1S)-1-[[(7S,13S)-21-ethyl-24-fluoro-(20M)-20-[2-[(1S)-1-methoxyethyl]-5-morpholino-3-pyridyl]-17,17-dimethyl-8,14-dioxo-15-oxa-4-thia-9,21,27,28-tetrazapentacyclo[17.5.2.1^2,5.1^9,13.0^22,26]octacosa-1(25),2,5(28),19,22(26),23-hexaen-7-yl]carbamoyl]-2-methyl-propyl]-4-fluoro-N-methyl-piperidine-4-carboxamide] | 217 | 15 | 72 | 13 | 3 | < 1
CCn1c(-c2cc(N3CCOCC3)cnc2[C@H](C)OC)c2c3cc(c(F)cc31)-c1csc(n1)C[C@H](NC(=O)[C@H](C(C)C)N1CC[C@]3(CCN(C(=O)[C@H](F)Cl)C3)C1=O)C(=O)N1CCC[C@H](N1)C(=O)OCC(C)(C)C2 (atropisomer, axis not shown; (M)) [Example 51, (2S)-2-[(5S)-7-[(2R)-2-chloro-2-fluoro-acetyl]-1-oxo-2,7-diazaspiro[4.4]nonan-2-yl]-N-[(7S,13S)-21-ethyl-24-fluoro-(20M)-20-[2-[(1S)-1-methoxyethyl]-5-morpholino-3-pyridyl]-17,17-dimethyl-8,14-dioxo-15-oxa-4-thia-9,21,27,28-tetrazapentacyclo[17.5.2.1^2,5.1^9,13.0^22,26]octacosa-1(25),2,5(28),19,22(26),23-hexaen-7-yl]-3-methyl-butanamide] | 6440 | 57 | 2500 | 52 | 34 | < 1
CO[C@@H](C)c1ncc(N2CCN(C)CC2)cc1-c1c2c3cc(c(F)cc3n1CC(F)(F)F)-c1csc(n1)C[C@H](NC(=O)[C@H](C(C)C)N(C)C(=O)C1(F)CCN(C(=O)[C@H](F)Cl)CC1)C(=O)N1CCC[C@H](N1)C(=O)OCC(C)(C)C2 (atropisomer, axis not shown; (M)) [Example 10, 1-[(2R)-2-chloro-2-fluoro-acetyl]-4-fluoro-N-[(1S)-1-[[(7S,13S)-24-fluoro-(20M)-20-[2-[(1S)-1-methoxyethyl]-5-(4-methylpiperazin-1-yl)-3-pyridyl]-17,17-dimethyl-8,14-dioxo-21-(2,2,2-trifluoroethyl)-15-oxa-4-thia-9,21,27,28-tetrazapentacyclo[17.5.2.1^2,5.1^9,13.0^22,26]octacosa-1(25),2,5(28),19,22(26),23-hexaen-7-yl]carbamoyl]-2-methyl-propyl]-N-methyl-piperidine-4-carboxamide] | 136 | 6 | 105 | 8 | 4 | < 1
CO[C@@H](C)c1ncc(N2CCN(C)CC2)cc1-c1c2c3cc(c(C)cc3n1CC(F)(F)F)-c1csc(n1)C[C@H](NC(=O)[C@H](C(C)C)N(C)C(=O)C1(F)CCN(C(=O)[C@H](F)Cl)CC1)C(=O)N1CCC[C@H](N1)C(=O)OCC(C)(C)C2 (atropisomer, axis not shown; (M)) [Example 9, 1-[(2R)-2-chloro-2-fluoro-acetyl]-4-fluoro-N-[(1S)-1-[[(7S,13S)-(20M)-20-[2-[(1S)-1-methoxyethyl]-5-(4-methylpiperazin-1-yl)-3-pyridyl]-17,17,24-trimethyl-8,14-dioxo-21-(2,2,2-trifluoroethyl)-15-oxa-4-thia-9,21,27,28-tetrazapentacyclo[17.5.2.1^2,5.1^9,13.0^22,26]octacosa-1(25),2,5(28),19,22(26),23-hexaen-7-yl]carbamoyl]-2-methyl-propyl]-N-methyl-piperidine-4-carboxamide] | > 10000 | 22 | 505 | 28 | 64 | 7
